Holding throughout (assay type): binding
One assay addresses T1, KRAS WT (Homo sapiens, UniProt P01116).
T1 construct: made in house; host or cells: E. coli, e.g. BL21 (DE3)
Briefly: HTRF assay of wildtype K-Ras interaction with SOS1 (PPI-HTRF). The conditions noted are these: HTRF, 5 nM KRAS WT; read-out: PPI-HTRF-5 nM KRAS WT. The method in brief:
(§1)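 HTRF readout of GST-tagged K-Ras (WT or mutant) binding to His-hSOS1, using anti-GST-Eu donor and anti-6His-XL665 acceptor in HEPES pH 7.4 buffer with DTT, BSA and Igepal. Read after about 10 min or longer; duplicate compound dilutions from 10 μM. IC50 from 665/620 nm ratio.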

In a further assay the target is T2, KRAS G12D (Homo sapiens, UniProt P01116, G12D).
T2 construct: made in house; host or cells: E. coli, e.g. BL21 (DE3)
T2 sequence (P01116 1-188 isoform P01116-2 G12D): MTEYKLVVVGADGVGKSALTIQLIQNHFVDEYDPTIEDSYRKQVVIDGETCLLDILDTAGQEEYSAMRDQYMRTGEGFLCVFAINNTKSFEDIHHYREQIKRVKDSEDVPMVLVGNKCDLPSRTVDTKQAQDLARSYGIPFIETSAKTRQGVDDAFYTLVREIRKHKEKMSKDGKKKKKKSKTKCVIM
Nature of the assay: HTRF assay of K-Ras G12D interaction with SOS1 (PPI-HTRF). The following applies: HTRF, 5 nM KRAS G12D; read-out: PPI-HTRF-5 nM KRAS G12D. The method in brief:
as §1

The target in the next assay is T3, KRAS G12S (Homo sapiens, UniProt P01116, G12S).
T3 construct: made in house; host or cells: E. coli, e.g. BL21 (DE3)
T3 sequence (P01116 1-188 isoform P01116-2 G12S): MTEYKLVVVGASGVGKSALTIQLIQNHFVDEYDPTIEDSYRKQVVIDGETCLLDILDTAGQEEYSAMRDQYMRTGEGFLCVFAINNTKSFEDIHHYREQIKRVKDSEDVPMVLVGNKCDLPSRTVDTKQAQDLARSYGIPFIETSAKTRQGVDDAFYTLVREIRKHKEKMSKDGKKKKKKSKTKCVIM
Briefly: HTRF assay of K-Ras G12S interaction with SOS1 (PPI-HTRF). The following applies: 5 nM KRAS G12S, read-out: PPI-HTRF-5 nM KRAS G12S. Summed up:
as §1

Some results are limits rather than exact numbers.

T1 sequence (P01116 1-188 isoform P01116-2): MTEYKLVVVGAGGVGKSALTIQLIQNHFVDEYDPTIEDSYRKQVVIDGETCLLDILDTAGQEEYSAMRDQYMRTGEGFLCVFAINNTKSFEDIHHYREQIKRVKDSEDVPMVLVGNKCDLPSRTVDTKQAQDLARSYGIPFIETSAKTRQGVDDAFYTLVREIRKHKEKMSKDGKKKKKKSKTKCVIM

`C[C@@H]1C[C@@]2(CCN2)CN1c1nc(OC[C@@]23CCCN2C[C@H](F)C3)nc2c(F)c(-c3ccc(F)c4sc(N)c(C#N)c34)c(Cl)cc12` [Compound 335, 2-amino-4-(6-chloro-8-fluoro-2-(((2R,7aS)-2-fluorotetrahydro-1H-pyrrolizin-7a(5H)-yl)methoxy)-4-((4S,7R)-7-methyl-1,6-diazaspiro[3.4]octan-6-yl)quinazolin-7-yl)-7-fluorobenzo[b]thiophene-3-carbonitrile]: the IC50 at KRAS WT, at KRAS G12D and on KRAS G12S was less than 5 µM in each case.
For the molecule `Cc1nc(C)n(C(=O)N2CCC23CCN(c2nc(OC[C@@]45CCCN4C[C@H](F)C5)nc4c(F)c(-c5ccc(F)c6sc(N)c(C#N)c56)c(Cl)cc24)C3)n1` (stereo partly drawn) [Compound 226, 2-amino-4-(6-chloro-4-(1-(3,5-dimethyl-1H-1,2,4-triazole-1-carbonyl)-1,6-diazaspiro[3.4]octan-6-yl)-8-fluoro-2-(((2R,7aS)-2-fluorotetrahydro-1H-pyrrolizin-7a(5H)-yl)methoxy)quinazolin-7-yl)-7-fluorobenzo[b]thiophene-3-carbonitrile], the IC50 on KRAS WT, on KRAS G12D and on KRAS G12S was less than 5 µM in each case.
As to `C[C@H](Oc1nc(N2CCC3(CCN3C(=O)c3ccnn3C)C2)c2cc(Cl)c(-c3ccc(F)c4sc(N)c(C#N)c34)c(F)c2n1)[C@@H]1CCCN1C` (stereo partly drawn) [Compound 274, 2-amino-4-(6-chloro-8-fluoro-4-(1-(1-methyl-1H-pyrazole-5-carbonyl)-1,6-diazaspiro[3.4]octan-6-yl)-2-((S)-1-((S)-1-methylpyrrolidin-2-yl)ethoxy)quinazolin-7-yl)-7-fluorobenzo[b]thiophene-3-carbonitrile], the IC50 at KRAS WT, at KRAS G12D and on KRAS G12S was less than 5 µM throughout.
For `N#Cc1c(N)sc2c(F)ccc(-c3c(Cl)cc4c(N5CC[C@@]6(CCN6C(=O)n6cnc(F)n6)C5)nc(OC[C@@]56CCCN5C[C@H](F)C6)nc4c3F)c12` (atropisomer, axis not shown; (aS)) [Compound 281, (R)-2-amino-4-(6-chloro-8-fluoro-4-((R)-1-(3-fluoro-1H-1,2,4-triazole-1-carbonyl)-1,6-diazaspiro[3.4]octan-6-yl)-2-(((2R,7aS)-2-fluorotetrahydro-H-pyrrolizin-7a(5H)-yl)methoxy)quinazolin-7-yl)-7-fluorobenzo[b]thiophene-3-carbonitrile], the IC50 at KRAS WT, on KRAS G12D and at KRAS G12S was less than 5 µM each time.
In the case of `C[C@H](Oc1nc(N2CCCC3(CCN3C(=O)c3ccnn3C)C2)c2cc(Cl)c(-c3ccc(F)c4sc(N)c(C#N)c34)c(F)c2n1)[C@@H]1CCCN1C` (stereo partly drawn) [Compound 282, 2-amino-4-(6-chloro-8-fluoro-4-(1-(1-methyl-1H-pyrazole-5-carbonyl)-1,6-diazaspiro[3.5]nonan-6-yl)-2-((S)-1-((S)-1-methylpyrrolidin-2-yl)ethoxy)quinazolin-7-yl)-7-fluorobenzo[b]thiophene-3-carbonitrile], the IC50 on KRAS WT, at KRAS G12D and on KRAS G12S was less than 5 µM each time.
Regarding `C[C@H](Oc1nc(N2CCCC3(CCN3C(=O)C3CC3(F)F)C2)c2cc(Cl)c(-c3ccc(F)c4sc(N)c(C#N)c34)c(F)c2n1)[C@@H]1CCCN1C` (stereo partly drawn) [Compound 223, 2-Amino-4-(6-chloro-4-(1-(2,2-difluorocyclopropane-1-carbonyl)-1,6-diazaspiro[3.5]nonan-6-yl)-8-fluoro-2-((S)-1-((S)-1-methylpyrrolidin-2-yl)ethoxy)quinazolin-7-yl)-7-fluorobenzo[b]thiophene-3-carbonitrile], the IC50 at KRAS WT, at KRAS G12D and on KRAS G12S was less than 5 µM throughout.
For the molecule `Cc1cc(N)nc(-c2c(Cl)cc3c(N4CCC5(CCN5C(=O)n5cncn5)C4)nc(OC[C@@]45CCCN4C[C@H](F)C5)nc3c2F)c1C(F)(F)F` (stereo partly drawn) [Compound 286, (6-(7-(6-amino-4-methyl-3-(trifluoromethyl)pyridin-2-yl)-6-chloro-8-fluoro-2-(((2R,7aS)-2-fluorotetrahydro-1H-pyrrolizin-7a(5H)-yl)methoxy)quinazolin-4-yl)-1,6-diazaspiro[3.4]octan-1-yl)(1H-1,2,4-triazol-1-yl)methanone], the IC50 at KRAS WT, at KRAS G12D and at KRAS G12S was less than 5 µM throughout.
On to `N#Cc1c(N)sc2c(F)ccc(-c3c(Cl)cc4c(N5CCC6(COCCN6C(=O)C6CC6(F)F)C5)nc(OC[C@@]56CCCN5C[C@H](F)C6)nc4c3F)c12` (stereo partly drawn) [Compound 258, 2-amino-4-(6-chloro-4-(6-(2,2-difluorocyclopropane-1-carbonyl)-9-oxa-2,6-diazaspiro[4.5]decan-2-yl)-8-fluoro-2-(((2R,7aS)-2-fluorotetrahydro-1H-pyrrolizin-7a(5H)-yl)methoxy)quinazolin-7-yl)-7-fluorobenzo[b]thiophene-3-carbonitrile], for which the IC50 on KRAS WT, on KRAS G12D and at KRAS G12S was less than 5 µM each time.
For the molecule `Nc1nc2c(-c3c(Cl)cc4c(N5CCC6(CCN6)C5)nc(OC[C@@]56CCCN5C[C@H](F)C6)nc4c3F)ccc(F)c2s1` (stereo partly drawn) [Compound 242, 4-(6-chloro-8-fluoro-2-(((2R,7aS)-2-fluorotetrahydro-1H-pyrrolizin-7a(5H)-yl)methoxy)-4-(1,6-diazaspiro[3.4]octan-6-yl)quinazolin-7-yl)-7-fluorobenzo[d]thiazol-2-amine], the IC50 at KRAS WT, on KRAS G12D and at KRAS G12S was less than 5 µM each time.
Take `Nc1nc2c(-c3c(Cl)cc4c(N5CCCC6(CCCN6C(=O)n6cncn6)C5)nc(OC[C@@]56CCCN5C[C@H](F)C6)nc4c3F)ccc(F)c2s1` (stereo partly drawn) [Compound 211, (7-(7-(2-amino-7-fluorobenzo[d]thiazol-4-yl)-6-chloro-8-fluoro-2-(((2R,7aS)-2-fluorotetrahydro-1H-pyrrolizin-7a(5H)-yl)methoxy)quinazolin-4-yl)-1,7-diazaspiro[4.5]decan-1-yl)(1H-1,2,4-triazol-1-yl)methanone]: the IC50 at KRAS WT, at KRAS G12D and on KRAS G12S was less than 5 µM throughout.
Turning to `N#Cc1c(N)sc2c(F)ccc(-c3c(Cl)cc4c(N5CC6(CCN6C(=O)n6cnc(Cl)n6)CC5C(F)F)nc(OC[C@@]56CCCN5C[C@H](F)C6)nc4c3F)c12` (stereo partly drawn) [Compound 323, 2-amino-4-(6-chloro-4-(1-(3-chloro-1H-1,2,4-triazole-1-carbonyl)-7-(difluoromethyl)-1,6-diazaspiro[3.4]octan-6-yl)-8-fluoro-2-(((2R,7aS)-2-fluorotetrahydro-1H-pyrrolizin-7a(5H)-yl)methoxy)quinazolin-7-yl)-7-fluorobenzo[b]thiophene-3-carbonitrile], the IC50 at KRAS WT was greater than 5 µM; at KRAS G12D, greater than 5 µM; on KRAS G12S, less than 5 µM.
In the case of `Nc1nc2c(-c3c(Cl)cc4c(N5CC6(CCN6C(=O)n6cncn6)C5)nc(OC[C@@]56CCCN5C[C@H](F)C6)nc4c3F)ccc(F)c2s1` [Compound 273, (6-(7-(2-amino-7-fluorobenzo[d]thiazol-4-yl)-6-chloro-8-fluoro-2-(((2R,7aS)-2-fluorotetrahydro-1H-pyrrolizin-7a(5H)-yl)methoxy)quinazolin-4-yl)-1,6-diazaspiro[3.3]heptan-1-yl)(1H-1,2,4-triazol-1-yl)methanone], the IC50 on KRAS WT, on KRAS G12D and on KRAS G12S was less than 5 µM throughout.
For `N#Cc1c(N)sc2c(F)ccc(-c3c(Cl)cc4c(N5CCC6(CCCN6)C5)nc(OC[C@@]56CCCN5C[C@H](F)C6)nc4c3F)c12` (stereo partly drawn) [Compound 284, 2-amino-4-(6-chloro-8-fluoro-2-(((2R,7aS)-2-fluorotetrahydro-1H-pyrrolizin-7a(5H)-yl)methoxy)-4-(1,7-diazaspiro[4.4]nonan-7-yl)quinazolin-7-yl)-7-fluorobenzo[b]thiophene-3-carbonitrile], the IC50 on KRAS WT, at KRAS G12D and on KRAS G12S was less than 5 µM in each case.
In the case of `Nc1nc2c(-c3c(Cl)cc4c(NC5CC6(CCN6)C5)nc(OC[C@@]56CCCN5C[C@H](F)C6)nc4c3F)ccc(F)c2s1` (stereo partly drawn) [Compound 230, 4-(4-((1-azaspiro[3.3]heptan-6-yl)amino)-6-chloro-8-fluoro-2-(((2R,7aS)-2-fluorotetrahydro-1H-pyrrolizin-7a(5H)-yl)methoxy)quinazolin-7-yl)-7-fluorobenzo[d]thiazol-2-amine], the IC50 on KRAS WT, at KRAS G12D and at KRAS G12S was less than 5 µM in each case.
`CC(C)=C(C#N)C(=O)N1CCC12CCN(c1nc(OC[C@@]34CCCN3C[C@H](F)C4)nc3c(F)c(-c4ccc(F)c5sc(N)c(C#N)c45)c(Cl)cc13)C2` (stereo partly drawn) [Compound 297, 2-amino-4-(6-chloro-4-(1-(2-cyano-3-methylbut-2-enoyl)-1,6-diazaspiro[3.4]octan-6-yl)-8-fluoro-2-(((2R,7aS)-2-fluorotetrahydro-1H-pyrrolizin-7a(5H)-yl)methoxy)quinazolin-7-yl)-7-fluorobenzo[b]thiophene-3-carbonitrile]: the IC50 on KRAS WT, at KRAS G12D and on KRAS G12S was less than 5 µM in each case.

(Values after US20240116951A1, “HETEROCYCLIC COMPOUNDS AND USES THEREOF” (Kumquat Biosciences Inc., priority 2022, published 2024).)
